Here are results for one compound from US20230158042A1, “COMBINATION CANCER THERAPY WITH PENTAAZA MACROCYCLIC RING COMPLEX AND HORMONE THERAPY AGENT” (Galera Labs, LLC, priority 2020, published 2023).

Test [1] deals with T47D-HTR cells. The experiment in a line: Ki-67 staining in T47D-HTR cells. It is filed as cell-based, human. The settings on record: 5 µM GC4419 for 5 days. From the text:
With respect to FIG. 16a, the data from FIG. 7i, where MCF7-HTR cells were stained for Ki-67, as well as DAPI, were counted with ImageJ and quantified for average Ki-67 intensity as shown in the bar graph. With respect to FIGS. 16b and 16c, T47D and T47D-HTR cells were stained for Ki-67 as well as DAPI, and particles in the nucleus were counted with ImageJ and quantified for average Ki-67 intensity as shown in the bar graph. In FIGS. 16d and 16e, MCF7-HTR cells, and in FIGS. 16f and 16g, T47D-HTR cells, were treated with 5 µM GC4419 and/or 1 µM 4-hydroxy-Tam for 5 days, and then stained for Ki-67 as well as DAPI. Quantifications of average Ki-67 intensity are shown in the bar graphs. All experiments were done in triplicate. Error bars represent ± 1 SEM. ***p < 0.001. Representative images are shown.
Cells seeded on glass coverslips were fixed in 4% paraformaldehyde and then blocked with 1% BSA and 10% normal goat serum in 1x PBS. Cells were incubated with anti-Ki-67 (c-bioscience) antibody in 1x PBS followed by incubation with goat anti-rabbit IgG conjugated with Alexa Fluor 647 (Invitrogen) in 1x PBS with 5% goat serum. Cells were washed in 1x PBS, mounted, and imaged with a fluorescence microscope. Fluorescence images were captured using a laser scanning confocal microscope (Nikon A1 R). The paired images in all the figures were collected at the same gain and offset settings. […]

The test system of test [2] is T47D-HTR cells. The experiment in a line: Clonogenic cell survival, hydroxy-Tam-resistant T47D cells with GC4419. The settings on record: 5 µM GC4419 for 5 days; 1 µM hydroxy-Tam. It is filed as cell-based, human. The method, then:
Clonogenic cell survival assay. For the clonogenic survival analysis, exponentially growing cells were replated using appropriate dilutions, and clonogenic survival was evaluated after 14 days in regular growth medium. Cells were stained with crystal violet, and colonies of >50 cells were counted and utilized to calculate clonogenic survival^46.
To test parameters indicative of oxidative stress, a clonogenic assay with hydroxy-Tam and MnPAM dismutase mimetic treatments was performed. Cells were plated at a density of 50,000 cells per 60-mm dish and treated with 1 µM hydroxy-Tam (Sigma) and 5 µM GC4419 (Galera Therapeutics) for a total of 120 h. This protocol was repeated with a fresh medium change every 24 h for 5 days. On day 6, the cells were trypsinized, counted, and replated in control medium using appropriate dilutions, and clonogenic survival was evaluated.

In test [3] the test system is mice lacking Sirt3. Particulars: IP injection with 2 mg/kg 30 minutes before IR; cited from earlier work.
Test [4] deals with T47D-MnSOD^K68Q cells. The test is described as follows: Ki-67 staining in T47D-MnSOD^K68Q cells. It is filed as cell-based, human. Particulars: 5 µM GC4419 for 5 days. As for the experimental part: MCF7-MnSOD^K68Q cells (in FIGS. 17a and 17b) and T47D-MnSOD^K68Q cells (in FIGS. 17c and 17d) were treated with 5 µM GC4419 and/or 1 µM 4-hydroxy-Tam for 5 days, and then stained for Ki-67 as well as DAPI. Quantifications of average Ki-67 intensity are shown in the bar graphs. In FIG. 17e, MCF7 and MCF7-HTR cells were implanted into both hind limbs of nude mice and tumor volumes were measured every 3 days for 6 weeks and the number of tumors that successfully implanted versus the total number of mice infected with MCF7 and MCF7-HTR as well as the average tumor weight and tumor size are shown. Representative images are shown. All experiments were done in triplicate. Error bars represent ± 1 SEM. ***p < 0.001.
Cells seeded on glass coverslips were fixed in 4% paraformaldehyde and then blocked with 1% BSA and 10% normal goat serum in 1x PBS. Cells were incubated with anti-Ki-67 (c-bioscience) antibody in 1x PBS followed by incubation with goat anti-rabbit IgG conjugated with Alexa Fluor 647 (Invitrogen) in 1x PBS with 5% goat serum. Cells were washed in 1x PBS, mounted, and imaged with a fluorescence microscope. Fluorescence images were captured using a laser scanning confocal microscope (Nikon A1 R). The paired images in all the figures were collected at the same gain and offset settings. Post-collection processing was applied uniformly to all paired images.

Test [5] relates to LNCaP-MnSOD^K68Q xenografts. The experiment in a line: LNCaP-MnSOD^K68Q hind limb xenograft growth in nude mice. The class given is in vivo. The settings on record: GC4419 10 mg/kg, once per week; tumor volumes for 46 days. As for the experimental part: FIGS. 21a-21b are a chart and graph showing that pharmacologically mimicking the activity of deacetylated lysine 68 MnSOD with a manganese pentaazamacrocyclic dismutase mimetic both inhibited the growth of LNCaP-ENZR tumors and reversed the enzalutamide resistance in LNCaP-ENZR / LNCaP—MnSOD^K68Q cells and tumors. In FIG. 21a, clonogenic cell survival experiments were performed in LNCaP-ENZR (left two bars) and LNCaP—MnSOD^K68Q (right two bars) treated with ENZ, with or without GC4419 (20 µM) for 5 days. […] Tumor volumes were measured three times a week for 46 days. For each group n=10. Error bars ± 1 SEM. All experiments done in triplicate. **p < 0.01.

Test [6] deals with MCF7-Cispl-R cells. The test is described as follows: SOX2 and OCT4 levels in cisplatin-resistant MCF7 cells. Particulars: data not shown. It is filed as cell-based, human.
Test [7] has as its system MCF-7-MnSOD^K68Q cells. The test is described as follows: Clonogenic cell survival after 5 Gy ionizing radiation in MCF-7-MnSOD^K68Q cells. The settings on record: 5 µM GC4419 for 5 days. It is filed as cell-based, human. The method, then: FIGS. 30a-30b are plots showing that mimicking acetylation of MnSOD—K68 with MnSOD^K68Q expression induces ionizing radiation resistance (IRR) in breast cancer cells, and that pharmacologically mimicking the activity of deacetylated lysine 68 MnSOD with a manganese pentaazamacrocyclic dismutase mimetic reverses this IRR. […] All experiments were done in triplicate. Error bars represent ± 1 SEM. ***p < 0.001. Data were analyzed by a t-test.

The test system of test [8] is Sirt3^-/--MT-SIRT3^DN allografts. The experiment in a line: Sirt3-/--MT-SIRT3^DN mammary allograft tumor growth (bioluminescence). The class given is in vivo. Particulars: GC4419 by IP every other day for five weeks; compared to control mice. The method, then: FIGS. 29a-29b are plots showing that the growth of murine mammary allograft tumors is inhibited by exposure to the MnSOD mimic GC4419 much more in cells without expression of deacetylation competent SIRT3. […] Mice were subsequently injected with luciferin potassium (120 mg/kg) every week and signal intensity will be quantified. Error bars represent one SD from the mean.
These cell lines were subsequently infected with and selected to express either a SIRT3 wild-type (Sirt3^-/--MT-SIRT3^WT) or deacetylation activity null (Sirt3^-/--MT-SIRT3^DN) gene and a lenti-luciferase to assess tumor growth by bioluminescence. Allograft tumor mice were split into four groups: (1) control, untreated Sirt3^-/--MT-SIRT3^DN; (2) GC4419 treated Sirt3^-/--MT-SIRT3^DN; (3) control, untreated Sirt3^-/--MT-SIRT3^WT; and (4) GC4419 treated Sirt3^-/--MT-SIRT3^WT. […] Accordingly, it was shown that the growth of murine mammary allograft tumors is inhibited by pharmacologically mimicking the activity of deacetylated lysine 68 MnSOD with a manganese pentaazamacrocyclic dismutase mimetic much more in tumors without deacetylation competent SIRT3. Further, this supports that selection of tumors displaying an AcK68 signature could increase response to treatment with a MnPAM dismutase mimetic (or other methods) alone or in combination with other therapies.

Test [9] has as its system head-and-neck cancer patients. Particulars: patients undergoing chemoradiation therapy, Phase 1 trial; cited from earlier work.

In the case of `[Cl][Mn][Cl].c1cc2nc(c1)CN[C@H]1CCCC[C@@H]1NCCN[C@H]1CCCC[C@@H]1NC2` [GC4419], the “Ki-67 IHC staining” value in test [1] is recorded as “decreased Ki-67 IHC staining”; in [4], “reversed the increase in Ki-67 IHC staining”. Moreover, in [2], the “hydroxy-Tam resistance (clonogenic cell survival)” value is on record as “became sensitive to hydroxy-Tam”. Also, the liver damage entry in [3] is on record as “attenuated liver damage”. Also, the xenograft growth result in test [5] was “significant inhibition of xenograft growth”. The “SOX2 and OCT4 levels” value in test [6] is “decreased SOX2 and OCT4 levels”. For the same compound, the “ionizing radiation resistance (IRR) phenotype, clonogenic cell survival” value in test [7] is given as “reversed the IRR phenotype”. Moreover, in test [8], the tumor growth result is on record as “significant decrease in tumor growth”. Moreover, the oral mucositis result in test [9] is given as “reduce oral mucositis”.
